These results are taken from PubChem BioAssay AID200 (DTP/NCI, 2004).

Several values for one entry are separate records, joined by “and”; a condition that tells them apart may be missing. Equal entries are not always repeated. Toxic doses and inconclusive results are not listed. *1 amine or outer side, *2 acyl side, *3 side chain or, on linkers, in order; H or OH if unused. Where a SMILES comes first, the peptide text is derived from it. Bridges are numbered along the chain shown (N, C = ends). [ ]: non-standard residue; d: D form. The star is where a group is joined. X5 = CC(C)C(C)C(C(=O)[*:2])N(C)[*:1]; Picolinoyl(3-OH) = O=C(c1ncccc1O)*; NMePhg = CN[CH](C(=O)O)c1ccccc1; Hyp = O=C(O)[CH]1C[CH](O)CN1; Sar = CNCC(=O)O

The test deals with B6C3F1 mice, B16 melanoma ip, median survival T/C. The experiment in a line: NCI In Vivo Anticancer Drug Screen. Data for tumor model B16 Melanoma (intraperitoneal) in B6C3F1 mice. The conditions noted are these: endpoint: median survival time, higher = longer survival. Put shortly:
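Transplantable tumor in mice; treated vs vehicle control groups; survival or tumor size measured; value = T/C ratio.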

[1] abbreviates: dose: 50.0 mg/kg/injection, schedule: Q01DX009 (ip), vehicle: Klucel (hydroxypropylcellulose) (HPC).
[2] abbreviates: dose: 100.0 mg/kg/injection, schedule: Q01DX009 (ip), vehicle: Klucel (hydroxypropylcellulose) (HPC).
[3] abbreviates: dose: 50.0 mg/kg/injection, schedule: Q01DX009 (ip), vehicle: saline with Tween-80.
[4] abbreviates: dose: 100.0 mg/kg/injection, schedule: Q01DX009 (ip), vehicle: saline with Tween-80.
The mark [5] stands for this setting: dose: 25.0 mg/kg/injection, schedule: Q01DX009 (ip), vehicle: distilled water + Tween-80.
[6] abbreviates: dose: 50.0 mg/kg/injection, schedule: Q01DX009 (ip), vehicle: distilled water + Tween-80.
Setting [7] is: dose: 12.5 mg/kg/injection, schedule: Q01DX009 (ip), vehicle: saline with Tween-80.
Setting [8] is: dose: 25.0 mg/kg/injection, schedule: Q01DX009 (ip), vehicle: saline with Tween-80.

For `CC(C)CC1NC(=O)C(NC(=O)c2ncccc2O)C(C)OC(=O)C(c2ccccc2)N(C)C(=O)C(C)NC(=O)C(C(C)C(C)C)N(C)C(=O)CN(C)C(=O)C2CC(O)CN2C1=O` (stereo unspecified) ({Picolinoyl(3-OH)}-TL[Hyp][Sar][X5]A[NMePhg]; ester 1-C; configuration not given here), the T/C is 103 % of control under setting [1]; 107 % of control under setting [2]; 111 % of control (dose: 200.0 mg/kg/injection, schedule: Q01DX009 (ip), vehicle: Klucel (hydroxypropylcellulose) (HPC)).

`COC1=C(C)C(=O)C2=C(C1=O)C1C3CC4=C(C(=O)C(OC)=C(C)C4=O)C(CNC(=O)C(C)=O)N3C(C#N)C(C2)N1C` (stereo unspecified): the T/C reads like this: (dose: 0.12 mg/kg/injection, schedule: Q01DX009 (ip), vehicle: Klucel (hydroxypropylcellulose) (HPC)) 95 % of control; (dose: 0.25 mg/kg/injection, schedule: Q01DX009 (ip), vehicle: Klucel (hydroxypropylcellulose) (HPC)) 103 % of control and 106 % of control; (dose: 0.5 mg/kg/injection, schedule: Q01DX009 (ip), vehicle: Klucel (hydroxypropylcellulose) (HPC)) 99 % of control and 106 % of control; (dose: 1.0 mg/kg/injection, schedule: Q01DX009 (ip), vehicle: Klucel (hydroxypropylcellulose) (HPC)) 115 % of control and 103 % of control.

For the molecule `O=C(O)C1CC1.[Ag]`, the T/C is 99 % of control (dose: 0.78 mg/kg/injection, schedule: Q01DX009 (ip), vehicle: water); 122 % of control (dose: 1.56 mg/kg/injection, schedule: Q01DX009 (ip), vehicle: water); 100 % of control (dose: 3.12 mg/kg/injection, schedule: Q01DX009 (ip), vehicle: water); 92 % of control (dose: 6.25 mg/kg/injection, schedule: Q01DX009 (ip), vehicle: water).

As for `CN(C)c1ccc2c(Nc3ccc(NS(C)(=O)=O)cc3)c3ccc(N(C)C)cc3nc2c1`, the T/C (dose: 25.0 mg/kg/injection, schedule: Q01DX009 (ip), vehicle: Klucel (hydroxypropylcellulose) (HPC)) was 94 % of control; the T/C under setting [1] was 115 % of control and 92 % of control; the T/C under setting [2] was 90 % of control and 104 % of control.

On to `C=C1C(=O)OCC1C(=O)O` (stereo unspecified), for which the T/C is 102 % of control and 103 % of control (dose: 4.0 mg/kg/injection, schedule: Q01DX009 (ip), vehicle: saline); 102 % of control (dose: 8.0 mg/kg/injection, schedule: Q01DX009 (ip), vehicle: saline); 88 % of control and 93 % of control (dose: 16.0 mg/kg/injection, schedule: Q01DX009 (ip), vehicle: saline); 93 % of control (dose: 32.0 mg/kg/injection, schedule: Q01DX009 (ip), vehicle: saline).

`O=C(O)CCC(NC(=O)c1ccccc1)C(=O)O` (stereo unspecified): the T/C was 93 % of control under setting [3] and 106 % of control under setting [4].

Regarding `COC(=O)Nc1cn2ccc(C(Cl)=C(Cl)Cl)cc2n1`, the T/C reads like this: under setting [1], 111 % of control; under setting [2], 116 % of control.

For the molecule `CCOC(=O)c1ccc(NC(=O)Nc2nncs2)cc1`, the T/C is 100 % of control (dose: 6.25 mg/kg/injection, schedule: Q01DX009 (ip), vehicle: distilled water + Tween-80); 110 % of control (dose: 12.5 mg/kg/injection, schedule: Q01DX009 (ip), vehicle: distilled water + Tween-80); 115 % of control under setting [5]; 121 % of control under setting [6]; 121 % of control (dose: 100.0 mg/kg/injection, schedule: Q01DX009 (ip), vehicle: distilled water + Tween-80); 105 % of control (dose: 200.0 mg/kg/injection, schedule: Q01DX009 (ip), vehicle: distilled water + Tween-80).

In the case of `CCOC(=O)NC1=C(N2CC2)C(=O)C(NC(=O)OCC)=C(N2CC2)C1=O`, the T/C is, setting by setting: (dose: 0.25 mg/kg/injection, schedule: Q01DX009 (ip), vehicle: saline) 97 % of control; (dose: 0.5 mg/kg/injection, schedule: Q01DX009 (ip), vehicle: saline) 92 % of control; (dose: 2.0 mg/kg/injection, schedule: Q01DX009 (ip), vehicle: saline) 115 % of control.

For the molecule `c1ccc2c(c1)[As]=c1ccccc1=[As]2` (stereo unspecified), the T/C (dose: 0.75 mg/kg/injection, schedule: Q01DX009 (ip), vehicle: saline with Tween-80) is 105 % of control; the T/C (dose: 1.5 mg/kg/injection, schedule: Q01DX009 (ip), vehicle: saline with Tween-80) is 112 % of control and 103 % of control; the T/C (dose: 3.0 mg/kg/injection, schedule: Q01DX009 (ip), vehicle: saline with Tween-80) was 107 % of control and 108 % of control; the T/C (dose: 6.0 mg/kg/injection, schedule: Q01DX009 (ip), vehicle: saline with Tween-80) is 115 % of control and 98 % of control; the T/C (dose: 12.0 mg/kg/injection, schedule: Q01DX009 (ip), vehicle: saline with Tween-80) is 122 % of control; the T/C (dose: 24.0 mg/kg/injection, schedule: Q01DX009 (ip), vehicle: saline with Tween-80) is 87 % of control.

On to `CC(=O)Nc1c2sscc-2n(C)c1=O`, for which the T/C runs as follows: (dose: 0.19 mg/kg/injection, schedule: Q01DX009 (ip), vehicle: saline) 105 % of control; (dose: 0.39 mg/kg/injection, schedule: Q01DX009 (ip), vehicle: saline) 93 % of control; (dose: 0.78 mg/kg/injection, schedule: Q01DX009 (ip), vehicle: saline) 94 % of control.

For the molecule `CCOc1ccc(C(C)c2cc3c(cc2OC)OCO3)cc1` (stereo unspecified), the T/C was 123 % of control under setting [5] and 107 % of control under setting [6].

For `CCCCCCCCCCCCNCCCc1ccccc1`, the T/C under setting [7] was 94 % of control and the T/C under setting [8] is 93 % of control.

For the molecule `Nc1nc2c(C(=O)N3CCCC3)nnn2c2ccccc12`, the T/C (dose: 6.25 mg/kg/injection, schedule: Q01DX009 (ip), vehicle: saline with Tween-80) was 118 % of control; the T/C under setting [7] was 104 % of control; the T/C under setting [8] was 122 % of control; the T/C under setting [3] is 107 % of control; the T/C under setting [4] is 102 % of control.

For `O=P1(N(CCCl)CCCl)NCCCO1` (stereo unspecified), the T/C (dose: 12.5 mg/kg/injection, schedule: Q01DX009 (ip), vehicle: saline) was 121 % of control; the T/C (dose: 18.75 mg/kg/injection, schedule: Q01DX005 (ip), vehicle: saline) is 104 % of control; the T/C (dose: 18.75 mg/kg/injection, schedule: Q01DX005 (iv), vehicle: saline) was 111 % of control; the T/C (dose: 25.0 mg/kg/injection, schedule: Q01DX001 (ip), vehicle: saline) was 108 % of control and 103 % of control; the T/C (dose: 37.5 mg/kg/injection, schedule: Q01DX001 (ip), vehicle: saline) is 106 % of control; the T/C (dose: 37.5 mg/kg/injection, schedule: Q01DX001 (iv), vehicle: saline) was 104 % of control. The T/C by setting is: (dose: 37.5 mg/kg/injection, schedule: Q01DX005 (ip), vehicle: saline) 121 % of control; (dose: 50.0 mg/kg/injection, schedule: Q01DX001 (ip), vehicle: saline) 111 % of control and 103 % of control; (dose: 50.0 mg/kg/injection, schedule: Q01DX009 (ip), vehicle: saline) 154 % of control; (dose: 75.0 mg/kg/injection, schedule: Q01DX001 (ip), vehicle: saline) 116 % of control; (dose: 75.0 mg/kg/injection, schedule: Q01DX001 (iv), vehicle: saline) 114 % of control; (dose: 75.0 mg/kg/injection, schedule: Q01DX005 (iv), vehicle: saline) 166 % of control. The T/C runs as follows: (dose: 150.0 mg/kg/injection, schedule: Q01DX005 (ip), vehicle: saline) 190 % of control; (dose: 200.0 mg/kg/injection, schedule: Q01DX001 (ip), vehicle: saline) 157 % of control and 161 % of control; (dose: 300.0 mg/kg/injection, schedule: Q01DX001 (ip), vehicle: saline) 185 % of control; (dose: 300.0 mg/kg/injection, schedule: Q01DX001 (iv), vehicle: saline) 166 % of control.

As to `CCCCCC(O)C1C(=O)OC(C)C(O)/C=C/C=C/C=C/C=C/C=C(\C)C(O)C(O)C(O)CC(O)CC(O)CC(O)CC(O)CC1O` (stereo unspecified), the T/C reads like this: (dose: 0.5 mg/kg/injection, schedule: Q01DX009 (ip), vehicle: other) 98 % of control; (dose: 1.0 mg/kg/injection, schedule: Q01DX009 (ip), vehicle: other) 119 % of control; (dose: 1.56 mg/kg/injection, schedule: Q01DX009 (ip), vehicle: saline) 102 % of control; (dose: 3.12 mg/kg/injection, schedule: Q01DX009 (ip), vehicle: saline) 88 % of control; (dose: 4.0 mg/kg/injection, schedule: Q01DX009 (ip), vehicle: other) 169 % of control; (dose: 8.0 mg/kg/injection, schedule: Q01DX009 (ip), vehicle: other) 166 % of control.
